Key:
[1] = wn = mass fraction of the nth substance listed; conditions: 101 kPa, Liquid; for viscosity: Concentric cylinders viscometry; for mass density: Vibrating tube method
[2] = refractive index (Na D-line) (dimensionless); wn = mass fraction of the nth substance listed; conditions: 101 kPa, Liquid, Standard Abbe refractometry

CC(O)CN (stereo not given) [1-amino-2-propanol] + O
Conditions	mass density, [1] [kg/m3]	refractive index, [2]	viscosity, [1] [mPa·s]
298.15 K, w1 = 0.05	998.574	1.33891	1.088
298.15 K, w1 = 0.1	999.182	1.34586	1.296
298.15 K, w1 = 0.15	999.932	1.35281	1.569
298.15 K, w1 = 0.2	1001.03	1.35955	1.944
298.15 K, w1 = 0.25	1002.46	1.36649	2.444
303.15 K, w1 = 0.05	997.087	1.33825	0.9733
303.15 K, w1 = 0.1	997.57	1.34506	1.148
303.15 K, w1 = 0.15	998.142	1.35201	1.372
303.15 K, w1 = 0.2	999.018	1.35875	1.678
303.15 K, w1 = 0.25	1000.2	1.3656	2.083
308.15 K, w1 = 0.05	995.386	1.33749	0.8761
308.15 K, w1 = 0.1	995.747	1.34432	1.027
308.15 K, w1 = 0.15	996.159	1.35092	1.215
308.15 K, w1 = 0.2	996.833	1.35767	1.468
308.15 K, w1 = 0.25	997.78	1.36461	1.799
313.15 K, w1 = 0.05	993.483	1.33668	0.7937
313.15 K, w1 = 0.1	993.738	1.34343	0.9275
313.15 K, w1 = 0.15	994.005	1.35012	1.084
313.15 K, w1 = 0.2	994.489	1.35672	1.295
313.15 K, w1 = 0.25	995.218	1.36347	1.574
318.15 K, w1 = 0.05	991.399	1.33578	0.7225
318.15 K, w1 = 0.1	991.552	1.34259	0.8362
318.15 K, w1 = 0.15	991.681	1.34908	0.9756
318.15 K, w1 = 0.2	991.989	1.35573	1.155
318.15 K, w1 = 0.25	992.514	1.36228	1.384
323.15 K, w1 = 0.05	989.143	1.33483	0.6617
323.15 K, w1 = 0.1	989.197	1.34154	0.7617
323.15 K, w1 = 0.15	989.197	1.34799	0.8864
323.15 K, w1 = 0.2	989.338	1.35454	1.039
323.15 K, w1 = 0.25	989.679	1.36109	1.231
328.15 K, w1 = 0.05	986.722	1.33384	0.6112
328.15 K, w1 = 0.1	986.682	1.3405	0.6988
328.15 K, w1 = 0.15	986.564	1.34705	0.8113
328.15 K, w1 = 0.2	986.546	1.3533	0.943
328.15 K, w1 = 0.25	986.711	1.35985	1.102
333.15 K, w1 = 0.05	984.143	1.3328	0.5696
333.15 K, w1 = 0.1	984.015	1.33936	0.647
333.15 K, w1 = 0.15	983.779	1.34581	0.75
333.15 K, w1 = 0.2	983.615	1.35211	0.8659
333.15 K, w1 = 0.25	983.616	1.35861	0.9934
338.15 K, w1 = 0.05	981.41	1.33173	0.5381
338.15 K, w1 = 0.1	981.198	1.33832	0.6053
338.15 K, w1 = 0.15	980.853	1.34462	0.6919
338.15 K, w1 = 0.2	980.549	1.35092	0.8
338.15 K, w1 = 0.25	980.398	1.35753	0.9015
343.15 K, w1 = 0.05	978.537	1.33057	0.5152
343.15 K, w1 = 0.1	978.237	1.33713	0.5701
343.15 K, w1 = 0.15	977.785	1.34343	0.6478
343.15 K, w1 = 0.2	977.354	1.34968	0.7408
343.15 K, w1 = 0.25	977.059	1.35614	0.8266
